Assay results: paper PMC6783941, “Synthesis of Ring II/III Fragment of Kanamycin: A New Minimum Structural Motif for Aminoglycoside Recognition” (Antibiotics, 2019)

Molecular target: T1, ANT-(4′) (Staphylococcus aureus, UniProt P05057)
T1 construct: gene knt; pET plasmid pET-ANT-(4′) in E. coli BL21 (printed for MIC strains)
Test: thermal shift, SYPRO Orange
Format: binding
Conditions: Tris 10 mM pH 8.0, 0.2 mM NaCl; protein 4.4 µM and ligand 10 µM solutions mixed; blank Tm 58 ± 0.1
Source text: thermal shift, SYPRO Orange on ANT-(4′)

T1 sequence (P05057 whole entry): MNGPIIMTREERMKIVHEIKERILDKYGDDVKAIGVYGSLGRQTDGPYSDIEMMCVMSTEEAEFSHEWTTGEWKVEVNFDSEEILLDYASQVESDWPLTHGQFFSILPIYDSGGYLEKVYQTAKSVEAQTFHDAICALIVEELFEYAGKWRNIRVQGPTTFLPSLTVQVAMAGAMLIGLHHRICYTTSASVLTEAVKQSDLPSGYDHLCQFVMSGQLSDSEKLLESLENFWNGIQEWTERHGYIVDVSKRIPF

| Structure (SMILES) | 1 [°C] | 4 [°C] |
| --- | --- | --- |
| NC[C@H]1O[C@H](O[C@H]2[C@H](O)[C@@H](O[C@H]3O[C@H](CO)[C@@H](O)[C@H](N)[C@H]3O)[C@H](N)C[C@@H]2N)[C@H](O)[C@@H](O)[C@@H]1O [compound 1, Kanamycin A] | 61.5 ± 0.1 |  |
| NC[C@H]1O[C@H](O[C@H]2[C@H](O)[C@@H](O)[C@H](N)C[C@@H]2N)[C@H](N)[C@@H](O)[C@@H]1O [compound 4, 4-O-(2,6-di-Deoxy-α-D-2,6-di-amine-glucopyranosyl)-2-deoxy-streptamine] |  | 61 ± 0.1 |
